These are literature values, as cited in article PMC9587990, “Molecular basis for isoform-selective inhibition of presenilin-1 by MRK-560” (Nature Communications, 2022).

This data set has as its system PS1-complex over PS2. Conditions: cited from earlier work.

`C[C@H](c1ccc(F)cc1CCCC(=O)O)N(c1cc(F)ccc1F)S(=O)(=O)c1ccc(Cl)cc1` [BMS299897]: the reported isoform selectivity result was “PS1 selectivity”.

For the compound `O=C1NCCCCC1N(Cc1ccc(Br)cc1)S(=O)(=O)c1ccc(Cl)cc1` (centres unmarked) [ELN318463], the reported isoform selectivity result is “PS1 selectivity”.
